Assay [1] addresses Protein kinase C alpha type (Mus musculus, UniProt P20444). As to the kind of experiment: Binding affinity to mouse PKC-alpha assessed as inhibition constant.
For assay [2], the target named is High affinity cGMP-specific 3',5'-cyclic phosphodiesterase 9A (Homo sapiens, UniProt O76083). As to the kind of experiment: Inhibition of PDE9 (unknown origin).
Assay [3] addresses T1, Histone deacetylase 2 (Homo sapiens, UniProt Q92769). As to the kind of experiment: Inhibition of HDAC2 (unknown origin).
Assay [4] addresses T2, Histone deacetylase 1 (Homo sapiens, UniProt Q13547). As to the kind of experiment: Inhibition of HDAC1 (unknown origin).
The nature of assay [5]: Inhibition of PDE5 (unknown origin). Further details: species or system Homo sapiens.
Assay [6] addresses T3, Protein deacetylase HDAC6 (Homo sapiens, UniProt Q9UBN7).
T3 sequence (Q9UBN7 whole entry): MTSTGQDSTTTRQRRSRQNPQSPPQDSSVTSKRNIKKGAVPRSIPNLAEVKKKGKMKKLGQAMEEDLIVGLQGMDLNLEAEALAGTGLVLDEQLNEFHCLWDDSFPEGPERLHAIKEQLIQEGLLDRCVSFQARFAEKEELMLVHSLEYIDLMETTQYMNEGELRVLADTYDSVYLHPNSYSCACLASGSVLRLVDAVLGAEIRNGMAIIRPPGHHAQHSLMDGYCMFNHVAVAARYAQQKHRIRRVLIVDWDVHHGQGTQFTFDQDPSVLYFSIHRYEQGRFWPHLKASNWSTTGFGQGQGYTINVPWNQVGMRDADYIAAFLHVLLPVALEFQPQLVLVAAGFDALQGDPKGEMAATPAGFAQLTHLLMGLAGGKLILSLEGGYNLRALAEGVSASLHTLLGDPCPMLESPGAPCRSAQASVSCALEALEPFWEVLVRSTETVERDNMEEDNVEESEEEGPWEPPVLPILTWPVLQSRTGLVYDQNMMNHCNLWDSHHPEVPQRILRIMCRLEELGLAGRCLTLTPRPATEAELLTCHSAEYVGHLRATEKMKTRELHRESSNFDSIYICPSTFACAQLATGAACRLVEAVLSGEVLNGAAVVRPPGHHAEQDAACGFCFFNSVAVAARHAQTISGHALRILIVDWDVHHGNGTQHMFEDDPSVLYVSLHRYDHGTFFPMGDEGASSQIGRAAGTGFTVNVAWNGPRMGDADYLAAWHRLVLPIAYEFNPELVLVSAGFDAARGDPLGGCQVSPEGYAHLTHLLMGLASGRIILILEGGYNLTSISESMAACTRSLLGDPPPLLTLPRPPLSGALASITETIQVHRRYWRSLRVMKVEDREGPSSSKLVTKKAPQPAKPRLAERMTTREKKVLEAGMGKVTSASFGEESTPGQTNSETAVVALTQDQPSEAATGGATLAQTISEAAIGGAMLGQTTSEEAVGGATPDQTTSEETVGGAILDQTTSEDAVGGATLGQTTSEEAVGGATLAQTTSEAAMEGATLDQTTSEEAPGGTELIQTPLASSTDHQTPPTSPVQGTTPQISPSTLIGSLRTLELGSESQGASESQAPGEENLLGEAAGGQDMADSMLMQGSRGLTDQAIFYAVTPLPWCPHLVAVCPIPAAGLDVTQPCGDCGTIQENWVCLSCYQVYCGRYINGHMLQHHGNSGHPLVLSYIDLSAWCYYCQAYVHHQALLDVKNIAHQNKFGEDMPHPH
As to the kind of experiment: Inhibition of HDAC6 (unknown origin).

In assay [7] the target is 72 kDa type IV collagenase (Homo sapiens, UniProt P08253). As to the kind of experiment: Inhibition of MMP2 (unknown origin) using chromogenic substrate incubated for 1 hr followed by substrate addition measured for 30 mins by microplate photometry.
For assay [8], the target named is T4, Histone deacetylase 8 (Homo sapiens, UniProt Q9BY41).
T4 sequence (Q9BY41 whole entry): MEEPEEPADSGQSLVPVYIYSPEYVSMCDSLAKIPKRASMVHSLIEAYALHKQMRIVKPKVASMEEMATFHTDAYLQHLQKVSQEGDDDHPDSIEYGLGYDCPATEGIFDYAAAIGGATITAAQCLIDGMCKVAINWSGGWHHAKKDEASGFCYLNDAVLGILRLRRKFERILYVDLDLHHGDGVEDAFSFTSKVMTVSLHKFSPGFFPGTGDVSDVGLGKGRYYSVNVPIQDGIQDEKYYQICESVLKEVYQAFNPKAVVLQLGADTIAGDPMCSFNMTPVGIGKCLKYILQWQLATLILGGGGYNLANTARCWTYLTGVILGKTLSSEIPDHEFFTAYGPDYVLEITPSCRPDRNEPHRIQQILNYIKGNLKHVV
As to the kind of experiment: Inhibition of recombinant human HDAC8 using Fluor-de-lys substrate by fluorescence based microplate reader analysis.

In assay [9] the test system is A549. As to the kind of experiment: Antiinvasive activity against human A549 cells assessed as reduction in cell invasion incubated for 24 hrs by microplate reader analysis relative to control. It counts as functional. Further details: scale not given: the % may be the effect or the level left.
Assay [10] relates to SMMC-7721. As to the kind of experiment: cells. It counts as functional, cell-based. To be noted: Homo sapiens, SMMC-7721, 48 h.
In assay [11] the target is Phosphatidylinositol 4,5-bisphosphate 3-kinase catalytic subunit alpha isoform (Homo sapiens, UniProt P42336). As to the kind of experiment: Inhibition of PI3K-alpha (unknown origin).
The target in assay [12] is T1, Histone deacetylase 2. As to the kind of experiment: Inhibition of recombinant human HDAC2 expressed in baculovirus infected Hi-5 insect cells using Ac-Lys-Tyr-Lys (epsilon-acetyl)-AMC as substrate incubated for 3 to 24 hrs by fluorescence based plate reader analysis.
In assay [13] the target is Histone deacetylase 3 (Homo sapiens, UniProt O15379). As to the kind of experiment: Inhibition of recombinant human HDAC3 expressed in baculovirus infected Hi-5 insect cells using Ac-Lys-Tyr-Lys (epsilon-acetyl)-AMC as substrate incubated for 3 to 24 hrs by fluorescence based plate reader analysis.
In assay [14] the test system is A549. As to the kind of experiment: Cytotoxicity against human A549 cells assessed as inhibition of cell proliferation incubated for 72 hrs by MTT assay. It counts as functional, cell-based. To be noted: A549, 72 h. For orientation: Formazan colour is commonly taken as a measure of viable cells.
Assay [15] relates to HCT-116. As to the kind of experiment: Cytotoxicity against human HCT-116 cells assessed as inhibition of cell proliferation incubated for 72 hrs by MTT assay. It counts as functional, cell-based. To be noted: HCT-116, 72 h.
Assay [16] concerns the target T2, Histone deacetylase 1. As to the kind of experiment: Inhibition of recombinant human HDAC1 expressed in baculovirus infected Hi-5 insect cells using Ac-Lys-Tyr-Lys (epsilon-acetyl)-AMC as substrate incubated for 3 to 24 hrs by fluorescence based plate reader analysis.

T2 sequence (Q13547 whole entry): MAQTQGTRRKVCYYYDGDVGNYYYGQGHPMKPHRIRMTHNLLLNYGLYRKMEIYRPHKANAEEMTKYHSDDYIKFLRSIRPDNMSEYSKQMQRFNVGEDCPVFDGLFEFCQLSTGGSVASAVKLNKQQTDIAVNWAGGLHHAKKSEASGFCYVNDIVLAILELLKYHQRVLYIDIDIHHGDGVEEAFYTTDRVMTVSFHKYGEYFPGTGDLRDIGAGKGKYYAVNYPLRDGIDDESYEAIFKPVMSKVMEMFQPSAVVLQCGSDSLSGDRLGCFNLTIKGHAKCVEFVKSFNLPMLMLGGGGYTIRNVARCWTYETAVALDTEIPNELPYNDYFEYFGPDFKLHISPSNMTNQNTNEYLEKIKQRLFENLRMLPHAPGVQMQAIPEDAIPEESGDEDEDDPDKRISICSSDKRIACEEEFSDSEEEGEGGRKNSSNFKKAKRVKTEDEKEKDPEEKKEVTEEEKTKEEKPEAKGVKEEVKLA
T1 sequence (Q92769 whole entry): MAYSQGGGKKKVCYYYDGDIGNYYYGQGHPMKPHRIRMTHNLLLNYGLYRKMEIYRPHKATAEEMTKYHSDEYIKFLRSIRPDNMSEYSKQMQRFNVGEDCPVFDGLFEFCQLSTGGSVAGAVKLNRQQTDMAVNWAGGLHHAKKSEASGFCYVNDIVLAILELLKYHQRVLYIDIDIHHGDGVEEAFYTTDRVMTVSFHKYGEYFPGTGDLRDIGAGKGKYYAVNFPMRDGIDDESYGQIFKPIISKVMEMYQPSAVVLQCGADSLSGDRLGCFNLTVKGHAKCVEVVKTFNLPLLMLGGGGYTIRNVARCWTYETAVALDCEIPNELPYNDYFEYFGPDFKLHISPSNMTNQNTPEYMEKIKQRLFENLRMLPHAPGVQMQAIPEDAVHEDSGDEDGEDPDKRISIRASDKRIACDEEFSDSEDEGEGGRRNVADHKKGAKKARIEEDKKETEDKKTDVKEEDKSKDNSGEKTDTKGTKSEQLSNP
Sequence of Histone deacetylase 3 (O15379 whole entry): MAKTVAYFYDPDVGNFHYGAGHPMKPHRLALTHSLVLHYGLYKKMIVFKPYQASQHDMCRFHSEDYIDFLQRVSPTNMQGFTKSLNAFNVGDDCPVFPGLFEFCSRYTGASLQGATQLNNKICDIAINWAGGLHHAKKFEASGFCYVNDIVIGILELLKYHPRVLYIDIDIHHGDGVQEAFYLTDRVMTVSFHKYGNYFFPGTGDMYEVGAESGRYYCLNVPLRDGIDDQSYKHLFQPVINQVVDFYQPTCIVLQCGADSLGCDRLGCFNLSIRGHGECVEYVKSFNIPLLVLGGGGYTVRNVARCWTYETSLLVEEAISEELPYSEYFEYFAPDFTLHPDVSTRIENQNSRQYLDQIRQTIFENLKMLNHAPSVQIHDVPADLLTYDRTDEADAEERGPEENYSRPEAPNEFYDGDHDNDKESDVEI
Sequence of High affinity cGMP-specific 3',5'-cyclic phosphodiesterase 9A (O76083 whole entry): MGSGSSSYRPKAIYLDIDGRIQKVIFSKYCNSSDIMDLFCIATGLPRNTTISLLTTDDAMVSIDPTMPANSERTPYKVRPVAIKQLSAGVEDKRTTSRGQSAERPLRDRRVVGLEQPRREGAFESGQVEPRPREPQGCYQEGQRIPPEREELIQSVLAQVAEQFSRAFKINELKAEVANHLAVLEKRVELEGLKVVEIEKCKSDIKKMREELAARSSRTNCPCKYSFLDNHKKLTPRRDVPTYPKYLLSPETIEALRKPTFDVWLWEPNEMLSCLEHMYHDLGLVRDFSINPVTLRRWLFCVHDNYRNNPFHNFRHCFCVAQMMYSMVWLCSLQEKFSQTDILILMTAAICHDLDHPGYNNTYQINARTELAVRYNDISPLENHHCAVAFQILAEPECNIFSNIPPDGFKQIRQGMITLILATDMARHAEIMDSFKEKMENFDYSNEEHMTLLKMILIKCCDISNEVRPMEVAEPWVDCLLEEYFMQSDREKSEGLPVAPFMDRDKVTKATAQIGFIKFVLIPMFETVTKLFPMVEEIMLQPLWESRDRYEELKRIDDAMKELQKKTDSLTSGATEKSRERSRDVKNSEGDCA
Sequence of 72 kDa type IV collagenase (P08253 whole entry): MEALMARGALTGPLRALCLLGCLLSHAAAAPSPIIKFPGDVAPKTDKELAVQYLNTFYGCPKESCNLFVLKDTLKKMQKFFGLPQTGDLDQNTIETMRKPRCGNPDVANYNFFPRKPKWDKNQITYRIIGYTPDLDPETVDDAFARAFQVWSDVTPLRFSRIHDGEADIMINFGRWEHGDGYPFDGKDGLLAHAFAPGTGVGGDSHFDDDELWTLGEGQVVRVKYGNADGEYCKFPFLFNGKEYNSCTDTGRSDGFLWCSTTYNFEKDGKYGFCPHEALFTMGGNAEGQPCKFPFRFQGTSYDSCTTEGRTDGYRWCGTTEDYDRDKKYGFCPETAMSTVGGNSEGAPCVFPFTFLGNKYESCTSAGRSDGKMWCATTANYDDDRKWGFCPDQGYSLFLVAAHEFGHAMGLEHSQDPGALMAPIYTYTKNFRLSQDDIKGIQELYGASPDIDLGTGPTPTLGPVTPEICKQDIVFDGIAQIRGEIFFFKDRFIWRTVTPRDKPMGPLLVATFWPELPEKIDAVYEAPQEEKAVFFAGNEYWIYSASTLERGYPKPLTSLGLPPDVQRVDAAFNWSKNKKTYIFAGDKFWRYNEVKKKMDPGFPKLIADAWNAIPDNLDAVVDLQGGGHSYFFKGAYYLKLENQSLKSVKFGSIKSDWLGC
Sequence of Phosphatidylinositol 4,5-bisphosphate 3-kinase catalytic subunit alpha isoform (P42336 whole entry, canonical isoform): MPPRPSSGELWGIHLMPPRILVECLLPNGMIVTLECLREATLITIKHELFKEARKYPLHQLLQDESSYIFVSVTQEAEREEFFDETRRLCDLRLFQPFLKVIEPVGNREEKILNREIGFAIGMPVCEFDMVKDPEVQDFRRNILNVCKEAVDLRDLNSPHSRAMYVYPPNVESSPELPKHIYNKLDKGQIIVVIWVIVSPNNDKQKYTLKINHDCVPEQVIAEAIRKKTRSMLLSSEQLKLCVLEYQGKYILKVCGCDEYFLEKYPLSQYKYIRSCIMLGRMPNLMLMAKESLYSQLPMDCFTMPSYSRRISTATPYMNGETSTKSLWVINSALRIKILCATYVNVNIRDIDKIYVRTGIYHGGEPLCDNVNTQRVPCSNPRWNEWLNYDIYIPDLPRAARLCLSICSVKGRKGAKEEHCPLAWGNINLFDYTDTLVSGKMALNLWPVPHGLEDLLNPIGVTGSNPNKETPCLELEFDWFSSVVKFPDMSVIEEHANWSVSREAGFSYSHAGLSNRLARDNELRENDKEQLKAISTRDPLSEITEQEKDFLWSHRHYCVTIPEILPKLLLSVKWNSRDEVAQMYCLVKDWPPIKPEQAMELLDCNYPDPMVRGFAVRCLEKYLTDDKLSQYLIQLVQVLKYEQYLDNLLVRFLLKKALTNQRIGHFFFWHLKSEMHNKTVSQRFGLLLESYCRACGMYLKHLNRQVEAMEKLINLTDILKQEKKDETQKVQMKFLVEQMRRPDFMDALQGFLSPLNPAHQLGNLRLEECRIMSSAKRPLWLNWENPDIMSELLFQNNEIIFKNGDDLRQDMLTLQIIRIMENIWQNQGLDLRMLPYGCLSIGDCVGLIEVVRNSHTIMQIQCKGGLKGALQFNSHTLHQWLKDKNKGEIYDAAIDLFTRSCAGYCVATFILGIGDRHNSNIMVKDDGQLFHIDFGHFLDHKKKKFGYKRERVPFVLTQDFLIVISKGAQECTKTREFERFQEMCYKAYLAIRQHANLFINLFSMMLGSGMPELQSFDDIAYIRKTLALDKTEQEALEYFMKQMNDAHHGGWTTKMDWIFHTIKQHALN

As usually defined, the Ki is the equilibrium dissociation constant of an inhibitor or competing ligand from its target. On to `CC(=O)SCCCCCCOc1ccc2c(c1)N(C)[C@@H](C(C)C)C(=O)N[C@H](CO)C2`, for which the Ki in [1] came out at 8.7 nM.
A word on the IC50: it is the concentration that inhibits the measured activity by half. Regarding `C[C@H]1CN(Cc2ccc(C(=O)NO)cc2)C[C@@H]1c1nc2c(cnn2C2CCCC2)c(=O)[nH]1`, the IC50 in [2] was 107 nM; in [3], 3530 nM; in [4], 593 nM; in [5], above 10 µM; in [6], 40 nM.
In the case of `O=C(O)CC[C@H](NC(=O)Cc1ccc(Br)cc1)C(=O)NCc1ccccc1`, the half-maximal inhibitory concentration (IC50) in assay [7] was determined as 19.6 µM; in [8], 3030 nM. For the same compound, the Activity in assay [9] was found to be 34%.
In the case of `C[C@H]1CN(Cc2ccc(/C=C/C(=O)NO)cc2)C[C@@H]1c1nc2c(cnn2C2CCOCC2)c(=O)[nH]1`, the IC50 is 8 nM in assay [2]; 1250 nM in assay [3]; 138 nM in assay [4]; above 10 µM in assay [5]; 508 nM in assay [6].
Turning to `CC(=O)SCCCCCCCOc1ccc2c(c1)N(C)[C@H](C(C)C)C(=O)N[C@@H](CO)C2`, the Ki in [1] is 4.5 nM.
Regarding `CC(C)=CCC/C(C)=C/CC/C(C)=C/CSc1ccccc1C(=O)O` [SALIRASIB], in assay [10], half-maximal inhibition (IC50) required 6.7 µM.
Consider `O=C(NO)c1ccc(/C=N/NC(=O)c2cc(N3CCOCC3)nc(-c3cccc(O)c3)n2)cc1`, for which the IC50 in assay [11] amounted to 46.3 nM; in assay [6], 15.3 nM.
For the compound `COc1ccc(CNC(=O)[C@H](CCC(=O)O)NC(=O)Cc2ccc(Br)cc2)cc1`, the results for the IC50 in assay [7] and in [8] were 6.4 µM and 2890 nM, respectively. In assay [9], the Activity worked out at 34%.
Turning to `COc1cc([C@@H]2c3cc4c(cc3C[C@H]3COC(=O)[C@@H]32)OCO4)cc(OC)c1OC(=O)CC(=O)Nc1ccc(C(=O)Nc2ccccc2N)cc1`, the half-maximal inhibitory concentration (IC50) was determined as 750 nM in assay [12]; 5.3 µM in [13]; 37 nM in assay [14]; 40 nM in [15]; 11 µM in [16].
For the compound `COc1cc([C@@H]2c3cc4c(cc3C[C@H]3COC(=O)[C@@H]32)OCO4)cc(OC)c1OC(=O)CC(=O)NCc1ccc(C(=O)Nc2ccccc2N)cc1`, the IC50 came out at 1730 nM in [12]; 1 µM in assay [13]; 36 nM in assay [14]; 37 nM in [15]; 11.1 µM in assay [16].
